Data taken from patent publication US20250195521A1 (Revolution Medicines, Inc., priority 2020, published 2025).

Each molecule was assayed against KRAS G13C binding to BRAF RBD (Homo sapiens (Human), UniProt P01116+P62937, G13C) (assay: Ras-Raf disruption/FRET/MOA assay, KRAS G13C).
Assay type: biochemical
Description: Disruption of B-Raf Ras-binding Domain (BRAF^RBD) Interaction with K-Ras by Compounds of the Invention (also called a FRET assay or an MOA assay)
Note—The following protocol describes a procedure for monitoring disruption of K-Ras G12C(GMP-PNP) binding to BRAF^RBD by a compound of the invention. This protocol may also be executed substituting other Ras proteins or nucleotides.
The purpose of this biochemical assay was to measure the ability of test compounds to facilitate ternary complex formation between a nucleotide-loaded K-Ras isoform and Cyclophilin A; the resulting ternary complex disrupts binding to a BRAF^RBD construct, inhibiting K-Ras signaling through a RAF effector. Data is reported as IC50 values.
In assay buffer containing 25 mM HEPES pH 7.3, 0.002% Tween20, 0.1% BSA, 100 mM NaCl and 5 mM MgCl2, tagless Cyclophilin A, His6-K-Ras-GMPPNP, and GST-BRAF^RBD were combined in a 384-well assay plate at final concentrations of 25 μM, 12.5 nM and 50 nM, respectively. Compound was present in plate wells as a 10-point 3-fold dilution series starting at a final concentration of 30 μM. After incubation at 25° C. for 3 hours, a mixture of Anti-His Eu—W1024 and anti-GST allophycocyanin was then added to assay sample wells at final concentrations of 10 nM and 50 nM, respectively, and the reaction incubated for an additional 1.5 hours. […] Compounds that facilitate disruption of a K-Ras: RAF complex were identified as those eliciting a decrease in the TR-FRET ratio relative to DMSO control wells.

Chain of KRAS G13C binding to BRAF RBD (P01116 other isoform, or with tags, fused parts or gaps G13C): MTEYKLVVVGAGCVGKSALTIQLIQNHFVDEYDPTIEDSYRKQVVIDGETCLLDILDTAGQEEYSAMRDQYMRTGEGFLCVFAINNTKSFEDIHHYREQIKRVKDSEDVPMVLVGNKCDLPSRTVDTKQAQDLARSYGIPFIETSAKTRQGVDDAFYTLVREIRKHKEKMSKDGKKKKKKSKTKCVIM
Chain of KRAS G13C binding to BRAF RBD (P62937 whole entry): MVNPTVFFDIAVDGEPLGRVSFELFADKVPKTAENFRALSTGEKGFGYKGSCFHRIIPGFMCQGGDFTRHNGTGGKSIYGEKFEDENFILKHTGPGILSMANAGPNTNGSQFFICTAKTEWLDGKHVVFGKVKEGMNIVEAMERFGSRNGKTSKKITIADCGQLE

Q: With `CCn1c(-c2cccnc2[C@H](C)OC)c2c3cc(ccc31)-c1cc(O)cc(c1)C[C@H](NC(=O)[C@H](C(C)C)N(C)C(=O)C1CC(=O)N(C3CC3)C1)C(=O)N1CCC[C@H](N1)C(=O)OCC(C)(C)C2` (stereo partly shown) [Compound A252] as the molecule, how does the IC50 read?
A: < 10 nM

Q: How did the IC50 turn out when `CCn1c(-c2cnccc2COC)c2c3cc(ccc31)-c1cc(O)cc(c1)C[C@H](NC(=O)[C@H](C(C)C)N(C)C(=O)N1CCNCC1)C(=O)N1CCC[C@H](N1)C(=O)OCC(C)(C)C2` [Compound A255] was run?
A: < 10 nM

Q: For `CCn1c(-c2cccnc2[C@H](C)OC)c2c3cc(ccc31)-c1csc(n1)C[C@H](NC(=O)[C@H](C(C)C)N(C)C(=O)N1C[C@@H](C)N(C)C[C@@H]1C)C(=O)N1CCC[C@H](N1)C(=O)OCC(C)(C)C2` [Compound A292], which IC50 is on record?
A: < 10 nM

Q: How did the IC50 turn out when `CCn1c(-c2cccnc2[C@H](C)OC)c2c3cc(ccc31)-c1csc(n1)C[C@H](NC(=O)[C@H](C(C)C)N(C)C(=O)N1CC(N3CCOCC3)C1)C(=O)N1CCC[C@H](N1)C(=O)OCC(C)(C)C2` [Compound A338] was run?
A: < 10 nM
